The results in this text go back to ChEMBL document CHEMBL4052759, “Discovery of DS79182026: A potent orally active hepcidin production inhibitor” (Bioorg Med Chem Lett, 2017).

For assay [1], the target named is RAC-alpha serine/threonine-protein kinase (Homo sapiens) (UniProt P31749). Nature of the assay: Inhibition of AKT1 (unknown origin) at 0.078 uM relative to control.
For assay [2], the target named is Ribosomal protein S6 kinase alpha-5 (Homo sapiens) (UniProt O75582). Briefly: Inhibition of MSK1 (unknown origin) at 0.078 uM relative to control.
In assay [3] the target is T1, Serine/threonine-protein kinase Chk1 (Homo sapiens) (UniProt O14757).
T1 sequence (whole entry): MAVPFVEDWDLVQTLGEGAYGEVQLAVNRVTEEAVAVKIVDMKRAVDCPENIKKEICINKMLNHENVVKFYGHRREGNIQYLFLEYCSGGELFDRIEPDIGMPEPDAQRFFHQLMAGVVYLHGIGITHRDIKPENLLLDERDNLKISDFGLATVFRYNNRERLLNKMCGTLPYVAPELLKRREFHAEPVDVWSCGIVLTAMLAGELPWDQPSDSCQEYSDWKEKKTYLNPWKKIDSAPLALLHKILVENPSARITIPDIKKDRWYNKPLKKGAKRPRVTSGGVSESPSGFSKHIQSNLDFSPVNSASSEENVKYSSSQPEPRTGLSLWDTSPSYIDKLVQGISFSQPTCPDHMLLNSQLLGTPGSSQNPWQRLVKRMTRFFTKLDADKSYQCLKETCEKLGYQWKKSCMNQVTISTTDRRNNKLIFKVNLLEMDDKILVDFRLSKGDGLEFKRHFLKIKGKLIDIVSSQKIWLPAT
Nature of the assay: Inhibition of CHK1 (unknown origin) at 0.078 uM relative to control.

Assay [4] addresses MAP kinase-activated protein kinase 2 (Homo sapiens) (UniProt P49137). Briefly: Inhibition of MAPKAPK2 (unknown origin) at 0.078 uM relative to control.
In assay [5] the target is Casein kinase I isoform alpha (Homo sapiens) (UniProt P48729). Briefly: Inhibition of CSNK1A1 (unknown origin) at 0.49 uM relative to control.
Assay [6] has as its target Ephrin type-B receptor 2 (Homo sapiens) (UniProt P29323). Briefly: Inhibition of EPHB2 (unknown origin) at 0.49 uM relative to control.
The target in assay [7] is Aurora kinase B (Homo sapiens) (UniProt Q96GD4). Nature of the assay: Inhibition of AurB (unknown origin) at 0.49 uM relative to control.
Assay [8] deals with AMP-activated protein kinase, AMPK (Homo sapiens) (UniProt P54646+O43741+P54619+Q9UGJ0+Q9Y478+Q13131+Q9UGI9). Nature of the assay: Inhibition of AMPK (unknown origin) at 0.49 uM relative to control.
Assay [9] addresses Dual specificity tyrosine-phosphorylation-regulated kinase 1B (Homo sapiens) (UniProt Q9Y463). Nature of the assay: Inhibition of DYRK1B (unknown origin) at 0.49 uM relative to control.
Assay [10] concerns the target SRSF protein kinase 3 (Homo sapiens) (UniProt Q9UPE1). Briefly: Inhibition of MSSK1 (unknown origin) at 0.49 uM relative to control.
Assay [11] concerns the target Fibroblast growth factor receptor 2 (Homo sapiens) (UniProt P21802). Briefly: Inhibition of FGFR2 (unknown origin) at 0.49 uM relative to control.
Assay [12] relates to Fibroblast growth factor receptor 2 (Homo sapiens), P21802 [N549H]. Nature of the assay: Inhibition of FGFR2 N549H mutant (unknown origin) at 0.49 uM.
In assay [13] the test system is Fibroblast growth factor receptor 3 (Homo sapiens), P22607 [K650E]. Nature of the assay: Inhibition of FGFR3 K650E mutant (unknown origin) at 0.49 uM relative to control.
Assay [14] has as its target Calcium/calmodulin-dependent protein kinase type II subunit beta (Homo sapiens) (UniProt Q13554). Briefly: Inhibition of CAMK2 (unknown origin) at 0.49 uM relative to control.
The target in assay [15] is Serine/threonine-protein kinase Chk2 (Homo sapiens) (UniProt O96017). Nature of the assay: Inhibition of CHK2 (unknown origin) at 0.49 uM relative to control.
Assay [16] has as its target Phosphorylase b kinase gamma catalytic chain, liver/testis isoform (Homo sapiens) (UniProt P15735). Briefly: Inhibition of PhKg2 (unknown origin) at 0.49 uM relative to control.
Assay [17] has as its system Tyrosine-protein kinase ABL1 (Homo sapiens), P00519 [H396P]. Nature of the assay: Inhibition of Abl H396P mutant (unknown origin) at 0.49 uM relative to control.
The target in assay [18] is Tyrosine-protein kinase BTK (Homo sapiens) (UniProt Q06187). Briefly: Inhibition of BTK (unknown origin) at 0.49 uM relative to control.
Assay [19] addresses Discoidin domain-containing receptor 2 (Homo sapiens) (UniProt Q16832). Briefly: Inhibition of DDR2 (unknown origin) at 0.49 uM relative to control.
The target of assay [20] is Macrophage-stimulating protein receptor (Homo sapiens) (UniProt Q04912). Briefly: Inhibition of MST1R (unknown origin) at 0.49 uM relative to control.
In assay [21] the target is NT-3 growth factor receptor (Homo sapiens) (UniProt Q16288). Briefly: Inhibition of TRKC (unknown origin) at 0.49 uM relative to control.
Assay [22] addresses Casein kinase I isoform gamma-2 (Homo sapiens) (UniProt P78368). Nature of the assay: Inhibition of Casein kinase 1g2 (unknown origin) at 0.45 uM relative to control.
Assay [23] addresses Casein kinase I isoform gamma-3 (Homo sapiens) (UniProt Q9Y6M4). Briefly: Inhibition of CSNK1G3 (unknown origin) at 0.45 uM relative to control.
The target in assay [24] is Casein kinase I isoform alpha (Homo sapiens) (UniProt P48729). Nature of the assay: Inhibition of CSNK1A1 (unknown origin) at 0.45 uM relative to control.
The target in assay [25] is Cyclin-dependent kinase 1/cyclin B1 (Homo sapiens) (UniProt P06493+P14635). Nature of the assay: Inhibition of CDK1/Cycline B1 (unknown origin) at 0.45 uM relative to control. It counts as protein-complex assay.
Assay [26] concerns the target Calcium/calmodulin-dependent protein kinase type II subunit alpha (Homo sapiens) (UniProt Q9UQM7). Nature of the assay: Inhibition of CaMK2a (unknown origin) at 0.45 uM relative to control.
In assay [27] the target is Mitogen-activated protein kinase 1 (Homo sapiens) (UniProt P28482). Nature of the assay: Inhibition of Erk2 (unknown origin) at 0.45 uM relative to control.
Assay [28] has as its target Serine/threonine-protein kinase 10 (Homo sapiens) (UniProt O94804). Nature of the assay: Inhibition of LOK (unknown origin) at 0.45 uM relative to control.
For assay [29], the target named is Phosphorylase b kinase gamma catalytic chain, skeletal muscle/heart isoform (Homo sapiens) (UniProt Q16816). Briefly: Inhibition of PhKg1 (unknown origin) at 0.45 uM relative to control.
The test system of assay [30] is Proto-oncogene tyrosine-protein kinase receptor Ret (Homo sapiens), P07949 [M918T]. Nature of the assay: Inhibition of RET M918T mutant (unknown origin) at 0.45 uM relative to control.
The target in assay [31] is Tyrosine-protein kinase Srms (Homo sapiens) (UniProt Q9H3Y6). Nature of the assay: Inhibition of SRM (SRMS) (unknown origin) at 0.45 uM relative to control.
Assay [32] deals with Protein kinase C beta (Homo sapiens) (UniProt P05771). Briefly: Inhibition of PKC-beta1 (unknown origin) at 0.45 uM relative to control.

Molecules are shown by their SMILES.

Turning to `COC(=O)Nc1noc2cc(-c3c(-c4ccccn4)n[nH]c3C)ccc12`, the inhibition in assay [1] was -1%; in assay [2] it was -5.7%; in [3], 1.3%; in [4], 4.7%.

As for `Cc1[nH]nc(C2CC2)c1-c1ccc2c(NC(=O)C3CC3)noc2c1`, the inhibition is 1.7% in assay [5]; 5.3% in assay [6]; -6.3% in assay [7]; 2% in [8]; 2% in assay [9]; 4% in assay [10]. For the same compound, the inhibition was -0.7% in [11]; 0% in assay [12]; -1.7% in assay [13]; -7% in [14]; 8% in [15]; 0.3% in [16]. For the same compound, the inhibition in assay [17] is 36.7%; in assay [18], 0.3%; in [19], 2%; in [20] it was -3%; in [21], 6.3%.

On to `Cc1n[nH]c(C)c1-c1ccc2c(NC(=O)c3ccc(N4CCN(C)CC4)cc3)n[nH]c2c1`, for which the inhibition in assay [22] was 0.7%; in assay [23], -0.7%; in assay [24], 2.3%; in [25], 1.3%; in [26] it was 2.7%; in assay [27], -0.3%. Further, the inhibition worked out at 9.3% in assay [28]; 0.7% in assay [29]; 57.7% in [30]; 9% in assay [31]; 7.7% in [32].

For orientation: inhibition means the change of the read-out against control, counted positive when it falls.
